Here are results for 58 molecules from patent publication US9216964B2, “Hedgehog pathway modulators” (Novartis AG, priority 2008, dated 2015).

One may read the IC50 as the midpoint of a concentration-inhibition curve. For orientation: pIC50 means the negative decadic logarithm of the IC50, by convention in mol/L.

pIC50: −log10 of the molar value.

The subject of the first test is hedgehog signaling pathway. As to the kind of experiment: Gli-Luc Reporter Assay for Hh Pathway Inhibition (TMHh-12 cells, pTA-8×Gli-Luc reporter). Type of test: cell-based, Mouse. The conditions noted are these: Mus musculus, TMHh12, Ag1.5 1 nM; read-out: Hedgehog Inhibition IC50 (nM) (Ag1.5 1 nM). The method, then: Compounds of the present invention are assayed to evaluate their capacity to inhibit the hedgehog signaling pathway.
Gli-Luc Reporter Assay for Hh Pathway Inhibition
Mouse TM3 cells (obtained from American Type Culture Collection, ATCC, Manassas, Va.) are cultured in DMEM/F12 medium (Gibco/Invitrogen, Carlsbad, Calif.) supplemented with 5% heat inactivated horse serum and 2.5% FBS (Gibco/Invitrogen, Carlsbad, Calif.), 50 unit/mL penicillin and 50 μg/mL of streptomycin (Gibco/Invitrogen, Carlsbad, Calif.) at […] with 5% CO2 in air atmosphere. TM3 cells were transfected with pTA-8×Gli-Luc reporter plasmid. A stably transfected clone termed TMHh-12 was selected. […] To evaluate the IC50s of the antagonists, 8000 TMHh-12 cells were plated into each wells in 384-well plates with 50% DMEM/F12 medium supplemented with 2% FBS. After 12 hours, Hh pathway is activated by adding recombinant mouse Shh protein (expressed in E. coli, 8 μg/mL) or by adding Smo agonists. The testing compounds are added into plates with different concentrations. After 48 hours, the firefly luciferase luciferase activities are assayed with the Bright-Glo™ Luciferase Assay System (Promega, Madison, Wis.). The IC50 is measured when the effect of the compound reduces the luminescence signal by 50%. Toxicity of these compounds are evaluated in TM3 cells using CellTiter Glo assays or by TM3-Luc cell line (a TM3 cell stably transfected with a constitutive luciferase expression vector).
(In general: In a reporter assay the amount or activity of a reporter protein is the signal.)
With `Clc1ccc(Nc2cccc3c2CCNC3)cc1-c1ncc(-c2ccccc2)[nH]1` [Compound 57], the half-maximal inhibitory concentration (IC50) was found to be 22.7 nM.
Still for that read-out and setting: the figure for `CCC(CC)(C(=O)O)C(=O)N1CCc2c(cccc2Nc2ccc(Cl)c(-c3nc(-c4ccccc4)c[nH]3)c2)C1` [Compound 66] is 5.3 nM.
Still for that read-out and setting: the same measure for `O=C(O)C1(C(=O)N2CCc3c(cccc3Nc3ccc(Cl)c(-c4ncc(-c5ccccc5)[nH]4)c3)C2)CCC1` [Compound 69]: 1.4 nM; for `CC1(C(=O)N2CCc3c(cccc3Nc3ccc(Cl)c(-c4ncc(-c5ccccc5)[nH]4)c3)C2)CC1` [Compound 73]: 0.5 nM; for `Cc1c(Nc2cccc3c2CCN(S(C)(=O)=O)C3)cccc1-c1ccc(C#N)cc1` [Compound 90]: 490 nM.
On the same count and under the same terms, the figure for `CS(=O)(=O)N1CCc2c(cccc2Nc2ccc(Cl)c(-c3nc(-c4ccccc4)co3)c2)C1` [Compound 96] is 263 nM.
With `Cc1ccc(Nc2cccc3c2CCN(S(C)(=O)=O)C3)cc1-c1nc2cnc(N(C)C)cc2[nH]1` [Compound 103], the IC50 is 59 nM.
The same measure, in the same setting: the same measure for `Cc1ccc(Nc2cccc3c2CCN(S(C)(=O)=O)C3)cc1-c1ccc(C(C)(C)C)cc1` [Compound 113]: 1030 nM.

Still in this test, the particulars now being: Mus musculus, TMHh12, enzymatic and cellular assays for the inhibition of hedgehog signaling pathways; read-out: IC50 Ranges.
For `CC(=O)N1CCc2c(cccc2Nc2ccc(Cl)c(-c3ncc(-c4ccccc4)[nH]3)c2)C1` [Compound 56], the pIC50 was 9.00 to 12.00.
As for `Clc1ccc(Nc2cccc3c2CCNC3)cc1-c1ncc(-c2ccccc2)[nH]1` [Compound 57], the pIC50 was 7.00 to 8.00.
Same read-out and setting: the same measure for `CC(C(=O)O)N1CCc2c(cccc2Nc2ccc(Cl)c(-c3ncc(-c4ccccc4)[nH]3)c2)C1` (stereo not drawn) [Compound 58]: 8.00 to 9.00; for `Cc1ccc(Nc2cccc3c2CCN(S(C)(=O)=O)C3)cc1-c1ncc(-c2cncnc2)[nH]1` [Compound 59]: 8.00 to 9.00; for `Cc1ccc(Nc2cccc3c2CCN(S(C)(=O)=O)C3)cc1-c1ncc(-c2cccnc2)[nH]1` [Compound 60]: 9.00 to 12.00.
Same read-out and setting: the figure for `Cc1ccc(Nc2cccc3c2CCN(S(C)(=O)=O)C3)cc1-c1nc2cc(F)ccc2[nH]1` [Compound 61] is 9.00 to 12.00; for `FC(F)(F)CN1CCc2c(cccc2Nc2ccc(Cl)c(-c3ncc(-c4ccccc4)[nH]3)c2)C1` [Compound 62] it is 9.00 to 12.00; for `Cc1ccc(Nc2cccc3c2CCN(S(C)(=O)=O)C3)cc1-c1nc2ncncc2[nH]1` [Compound 63] it is 7.00 to 8.00.
On the same count and under the same terms, the same measure for `O=C(O)C(F)(F)CN1CCc2c(cccc2Nc2ccc(Cl)c(-c3nc(-c4ccccc4)c[nH]3)c2)C1` [Compound 64]: 8.00 to 9.00; for `CC(C)(C(=O)O)N1CCc2c(cccc2Nc2ccc(Cl)c(-c3nc(-c4ccccc4)c[nH]3)c2)C1` [Compound 65]: 8.00 to 9.00.
In the case of `CCC(CC)(C(=O)O)C(=O)N1CCc2c(cccc2Nc2ccc(Cl)c(-c3nc(-c4ccccc4)c[nH]3)c2)C1` [Compound 66], the pIC50 is 8.00 to 9.00.
The same measure, in the same setting: the figure for `CC(C)(C(=O)O)C(=O)N1CCc2c(cccc2Nc2ccc(Cl)c(-c3ncc(-c4ccccc4)[nH]3)c2)C1` [Compound 67] is 8.00 to 9.00; for `O=C(O)C1(C(=O)N2CCc3c(cccc3Nc3ccc(Cl)c(-c4ncc(-c5ccccc5)[nH]4)c3)C2)CC1` [Compound 68] it is 9.00 to 12.00.
Still for that read-out and setting: the figure for `O=C(O)C1(C(=O)N2CCc3c(cccc3Nc3ccc(Cl)c(-c4ncc(-c5ccccc5)[nH]4)c3)C2)CCC1` [Compound 69] is 8.00 to 9.00; for `Cc1ccc(Nc2cccc3c2CCN(C(=O)C(C)(CO)CO)C3)cc1-c1nc2ccccc2[nH]1` [Compound 70] it is 9.00 to 12.00; for `OCC(F)(F)CN1CCc2c(cccc2Nc2ccc(Cl)c(-c3nc(-c4ccccc4)c[nH]3)c2)C1` [Compound 71] it is 9.00 to 12.00.
Still for that read-out and setting: the figure for `O=C(CO)N1CCc2c(cccc2Nc2ccc(Cl)c(-c3ncc(-c4ccccc4)[nH]3)c2)C1` [Compound 72] is 9.00 to 12.00.
With `CC1(C(=O)N2CCc3c(cccc3Nc3ccc(Cl)c(-c4ncc(-c5ccccc5)[nH]4)c3)C2)CC1` [Compound 73], the pIC50 was 9.00 to 12.00.
With `O=C(N1CCc2c(cccc2Nc2ccc(Cl)c(-c3ncc(-c4ccccc4)[nH]3)c2)C1)C1(O)CC1` [Compound 74], the pIC50 was 9.00 to 12.00.
The same measure, in the same setting: the same measure for `Cc1ccc(Nc2cccc3c2CCN(C(=O)C(C)(CO)CO)C3)cc1-c1ncc(-c2cccnc2)[nH]1` [Compound 76]: 8.00 to 9.00; for `CC(C(=O)O)N1CCc2c(Nc3ccc(Cl)c(-c4nc(-c5ccccc5)c[nH]4)c3)cccc2C1=O` (stereo not drawn) [Compound 77]: 6.00 to 7.00.
With `C[C@H](C(=O)O)N1CCc2c(cccc2Nc2ccc(Cl)c(-c3nc(-c4ccccc4)c[nH]3)c2)C1` [Compound 78], the pIC50 was 8.00 to 9.00.
The same measure, in the same setting: the same measure for `C[C@@H](C(=O)O)N1CCc2c(cccc2Nc2ccc(Cl)c(-c3nc(-c4ccccc4)c[nH]3)c2)C1` [Compound 79]: 8.00 to 9.00; for `CC1(N2CCc3c(cccc3Nc3ccc(Cl)c(-c4ncc(-c5ccccc5)[nH]4)c3)C2)CC1` [Compound 80]: 8.00 to 9.00.
Still for that read-out and setting: the figure for `Cc1ccc(Nc2cccc3c2CCN(C[C@H](O)CO)C3=O)cc1-c1nc2ccccc2[nH]1` [Compound 81] is 7.00 to 8.00.
Still for that read-out and setting: the figure for `Clc1ccc(Nc2cccc3c2CCN(C2CC2)C3)cc1-c1ncc(-c2ccccc2)[nH]1` [Compound 82] is 9.00 to 12.00.
As to `O=C(O)C(=O)N1CCc2c(cccc2Nc2ccc(Cl)c(-c3ncc(-c4ccccc4)[nH]3)c2)C1` [Compound 83], the negative-log IC50 (pIC50) is 7.00 to 8.00.
On the same count and under the same terms, the same measure for `OCC1(N2CCc3c(cccc3Nc3ccc(Cl)c(-c4ncc(-c5ccccc5)[nH]4)c3)C2)CC1` [Compound 84]: 9.00 to 12.00; for `Cc1ccc(Nc2cccc3c2CCN(CC(F)(F)CO)C3)cc1-c1nc2ccccc2[nH]1` [Compound 85]: 9.00 to 12.00; for `Clc1ccc(Nc2cccc3c2CCN(Cc2nn[nH]n2)C3)cc1-c1ncc(-c2ccccc2)[nH]1` [Compound 86]: 8.00 to 9.00.
On the same count and under the same terms, the figure for `Clc1ccc(Nc2cccc3c2CCN(c2nn[nH]n2)C3)cc1-c1ncc(-c2ccccc2)[nH]1` [Compound 87] is 8.00 to 9.00; for `O=C1c2cccc(Nc3ccc(Cl)c(-c4ncc(-c5ccccc5)[nH]4)c3)c2CCN1C1(CO)CC1` [Compound 88] it is 9.00 to 12.00; for `Cc1ccc(Nc2cccc3c2CCN(C2(CO)CC2)C3)cc1-c1nc2ccccc2[nH]1` [Compound 89] it is 8.00 to 9.00.
Still for that read-out and setting: the same measure for `Cc1c(Nc2cccc3c2CCN(S(C)(=O)=O)C3)cccc1-c1ccc(C#N)cc1` [Compound 90]: 6.00 to 7.00; for `Cc1ccc(-c2cnc(-c3cc(Nc4cccc5c4CCN(S(C)(=O)=O)C5)ccc3C)[nH]2)cn1` [Compound 91]: 8.00 to 9.00; for `OC[C@@H](O)CN1CCc2c(cccc2Nc2ccc(Cl)c(-c3ncc(-c4ccccc4)[nH]3)c2)C1` [Compound 93]: 8.00 to 9.00.
As to `CNc1ncc2nc(-c3cc(Nc4cccc5c4CCN(S(C)(=O)=O)C5)ccc3C)sc2n1` [Compound 94], the pIC50 was 7.00 to 8.00.
The same measure, in the same setting: the figure for `CC1(CN2CCc3c(cccc3Nc3ccc(Cl)c(-c4ncc(-c5ccccc5)[nH]4)c3)C2)CC1` [Compound 95] is 9.00 to 12.00.
On the same count and under the same terms, the figure for `CS(=O)(=O)N1CCc2c(cccc2Nc2ccc(Cl)c(-c3nc(-c4ccccc4)co3)c2)C1` [Compound 96] is 6.00 to 7.00; for `Cc1ccc(Nc2cccc3c2CCN(CC2(C)CC2)C3)cc1-c1nc2ccccc2[nH]1` [Compound 97] it is 8.00 to 9.00.
Still for that read-out and setting: the same measure for `COc1ccc(-c2cc(Nc3cccc4c3CCN(S(C)(=O)=O)C4)ccc2C)cn1` [Compound 98]: 7.00 to 8.00; for `COc1ccc(-c2cc(Nc3cccc4c3CCN(S(C)(=O)=O)C4)ccc2C)cc1` [Compound 99]: 7.00 to 8.00.
With `COc1ccc(-c2cnc(-c3cc(Nc4cccc5c4CCN(S(C)(=O)=O)C5)ccc3C)[nH]2)cn1` [Compound 100], the pIC50 was 9.00 to 12.00.
Still for that read-out and setting: the figure for `Cc1ccc(Nc2cccc3c2CCN(S(C)(=O)=O)C3)cc1-c1ncc(-c2ccc(C#N)cc2)[nH]1` [Compound 101] is 9.00 to 12.00; for `Cc1ccc(Nc2cccc3c2CCN(S(C)(=O)=O)C3)cc1-c1ccc(C#N)cc1` [Compound 102] it is 8.00 to 9.00.
On the same count and under the same terms, the same measure for `Cc1ccc(Nc2cccc3c2CCN(S(C)(=O)=O)C3)cc1-c1nc2cnc(N(C)C)cc2[nH]1` [Compound 103]: 7.00 to 8.00.
On the same count and under the same terms, the figure for `COc1cccc(-c2cnc(-c3cc(Nc4cccc5c4CCN(S(C)(=O)=O)C5)ccc3C)[nH]2)n1` [Compound 104] is 9.00 to 12.00.
Consider `Cc1ccc(Nc2cccc3c2CCN(S(C)(=O)=O)C3)cc1-c1nc2ccccc2o1` [Compound 105], for which the negative logarithm of the IC50 (pIC50) was 8.00 to 9.00.
`Cc1ccc(Nc2cccc3c2CCN(S(C)(=O)=O)C3)cc1-c1ncc(-c2ccc(CN(C)C)cc2)[nH]1` [Compound 106]: the pIC50 was 8.00 to 9.00.
With `Cc1ccc(Nc2cccc3c2CCN(S(C)(=O)=O)C3)cc1-c1ncc(-c2cnc(N(C)C)nc2)[nH]1` [Compound 107], the pIC50 was 8.00 to 9.00.
Still for that read-out and setting: the same measure for `Cc1ccc(Nc2cccc3c2CCN(S(C)(=O)=O)C3)cc1-c1ccc(CN(C)C)cc1` [Compound 108]: 6.00 to 7.00; for `Cc1ccc(Nc2cccc3c2CCN(S(C)(=O)=O)C3)cc1-c1ccc(-c2ccccc2)cc1` [Compound 109]: 6.00 to 7.00; for `COc1cc2[nH]c(-c3cc(Nc4cccc5c4CCN(S(C)(=O)=O)C5)ccc3C)nc2cn1` [Compound 110]: 7.00 to 8.00.
On the same count and under the same terms, the figure for `Cc1ncc(Nc2cccc3c2CCN(S(C)(=O)=O)C3)cc1-c1nc2ccccc2[nH]1` [Compound 111] is 8.00 to 9.00; for `Cc1ccc(Nc2cccc3c2CCN(CC(F)(F)CO)C3)cc1-c1ccc(C#N)cc1` [Compound 112] it is 7.00 to 8.00; for `Cc1ccc(Nc2cccc3c2CCN(S(C)(=O)=O)C3)cc1-c1ccc(C(C)(C)C)cc1` [Compound 113] it is 5.00 to 6.00.
Same read-out and setting: the same measure for `CC(=O)c1ccc(-c2cc(Nc3cccc4c3CCN(S(C)(=O)=O)C4)ccc2C)cc1` [Compound 114]: 6.00 to 7.00.

The same test, now with this note: enzymatic and cellular assays for the inhibition of hedgehog signaling pathways; read-out: IC50 Ranges.
Turning to `Cc1ccc(Nc2cccc3c2CCN(C2CCS(=O)(=O)CC2)C3)cc1-c1ncc(-c2cccnc2)[nH]1` [Compound 75], the pIC50 is 8.00 to 9.00.
